{"source": "ChEMBL document CHEMBL3804812", "about": "“Design, Syntheses, and Anti-TB Activity of 1,3-Benzothiazinone Azide and Click Chemistry Products Inspired by BTZ043” (ACS Med Chem Lett, 2016)", "tested_on": "Mycobacterium tuberculosis", "assay": "Antibacterial activity against Mycobacterium tuberculosis NTB1 harboring cys287ser mutation in DprE1 assessed as reduction in colony formation", "format": "functional, organism-based", "note": "The source made the active and inactive calls. No cut-off for these calls is given here."}
{"compound": "C[C@H]1COC2(CCN(c3nc(=O)c4cc(C(F)(F)F)cc(N=[N+]=[N-])c4s3)CC2)O1", "values": [{"measurement": "Activity", "result": "Active"}]}
